Measured values reported in patent publication EP4737448A1, “SARM1 ENZYME ACTIVITY INHIBITOR AND USE THEREOF” (Artivila (ShenZhen) Innovation Center, Ltd., priority 2023, dated 2025).
pIC50: −log10 of the molar value.

Assays:
SARM1 = biological target: T1, SARM1 (Homo sapiens, UniProt Q6SZW1); assay: In vitro biochemical assay for inhibiting SARM1 enzymatic activity (PC6 fluorescence, NAD substrate, NMN activator); details: 0.05 µg/mL SARM1, 50 µM NAD, 50 µM PC6, 50 µM NMN, 10 min pre-incubation, 30 min at room temperature
T1 construct: the inventor produces full-length SARM1 for NADase activity assays and for screening; His (C); made in house; host or cells: HEK293 cells (transient transfection; digitonin lysate supernatant, not purified further)
T1 sequence (Q6SZW1 28-724): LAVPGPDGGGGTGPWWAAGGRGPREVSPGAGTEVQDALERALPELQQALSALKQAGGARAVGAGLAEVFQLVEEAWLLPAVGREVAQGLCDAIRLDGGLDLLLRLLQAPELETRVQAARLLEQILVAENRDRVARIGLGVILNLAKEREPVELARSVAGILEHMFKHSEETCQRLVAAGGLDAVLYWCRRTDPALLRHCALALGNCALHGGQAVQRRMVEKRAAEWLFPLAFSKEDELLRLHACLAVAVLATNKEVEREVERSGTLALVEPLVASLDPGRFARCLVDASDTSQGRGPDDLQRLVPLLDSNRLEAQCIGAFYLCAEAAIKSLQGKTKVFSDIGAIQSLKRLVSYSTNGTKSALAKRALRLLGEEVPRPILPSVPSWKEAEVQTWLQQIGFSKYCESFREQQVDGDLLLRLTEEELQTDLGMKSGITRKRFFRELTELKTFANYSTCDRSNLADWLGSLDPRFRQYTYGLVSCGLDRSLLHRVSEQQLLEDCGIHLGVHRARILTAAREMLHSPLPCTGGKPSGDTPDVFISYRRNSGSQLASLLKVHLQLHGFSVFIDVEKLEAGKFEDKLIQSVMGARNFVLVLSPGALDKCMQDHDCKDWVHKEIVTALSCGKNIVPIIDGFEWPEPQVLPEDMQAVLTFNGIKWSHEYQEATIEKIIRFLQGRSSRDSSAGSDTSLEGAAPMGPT
Description: Compounds to be tested were stocked at 200 µM or 10 mM (in DMSO), and further diluted to the desired compound concentration for the in vitro SARM1 enzyme assay and inhibitor screening.
The gene sequence encoding SARM1 protein was amplified by PCR and the PCR amplification product was constructed into the pcDNA3.1-HIS-C plasmid. This construction was completed by YouBio Biological Technology (Hunan, China).
HEK293 cells were cultured in DMEM in a 10 cm dish. The next day, cells were transfected with 15 µg of the pcDNA3.1-SARM1-HIS-C expression plasmid.
Cells were harvested 48 hours after the transfection. The SARM1 protein expressed in cells was obtained through cell lysis by digitonin, which was used for in vitro activity assay. The specific process was as follows:
Cells were digested and detached from the dish using trypsin-EDTA, centrifuged at 1000 rpm for 5 minutes, washed once with PBS, then resuspended in PBS containing 100 µM digitonin at 0.6 mL PBS for the cells in 10 cm dish and lysed for 5 min. The cells were added with trypan blue and observed under a microscope. More than 90% of the cells were confirmed to be lysed. The cells were centrifuged at 5000 rpm for 10 min, and the supernatant containing SARM1 protein was collected.
The compound was added into a solution of 50 mM Tris-HCl (pH 7.5) containing 0.05 µg/mL SARM1 to achieve a concentration of 200 µM, and then serially diluted 6 times, where each dilution was carried out by taking half of the previous solution and adding an equal volume of 50 mM Tris-HCl (pH 7.5) containing 0.05 µg/mL SARM1, yielding a set of final concentrations of the compound of either 200, 100, 50, 25, 12.5, 6.25 and 3.125 µM, or 200, 50, 12.5, 3.125, 0.78, 0.195 and 0.049 µM. No inhibitor was added in the control group. All mixtures were incubated at room temperature for 10 min.
Subsequently, 50 µM NAD, 50 µM PC6 as substrate and 50 µM NMN as activator were added to the SARM1 protein incubated with the inhibitor and reacted for 30 min at room temperature. Wherein, the aforementioned concentrations of each component represent their respective final concentrations in the reaction system
During the reaction, the fluorescence spectrum dynamics of PC6 was detected by a microplate reader, with excitation and emission wavelengths set at 390 nm and 520 nm, respectively. The activity of the protein was expressed as the reaction rate and half maximal inhibitory concentration was calculated. The higher the reaction rate, the stronger the protein activity, and the lower the inhibitory efficiency of the compound.
Dose-response curves for inhibition of SARM1 enzymatic activity for NAD by the compounds were plotted using the above method.

[1] = tested on: axons of dorsal root ganglia explants; assay: Wallerian degeneration assay of axon in mouse DRG explant culture; assay type: cell-based, C57BL/6 mice; details: 10 µM compound, 2 h pretreatment, 24 h post axonal transection
Description: Dorsal root ganglia were dissected from two-month-old male C57BL/6 mice and placed into a 35-mm culture dish containing ice-cold HBSS buffer. Extra tissue surrounding each dorsal ganglion was removed using a scalpel, and the ganglia were cut into 2-3 explant pieces. These explants were seeded into wells of a 96-well plate pre-coated with 100 ng/mL Matrigel (Corning), added with 100 µL of DRG medium (Neurobasal medium (Gibco) containing 2% B-27 (Gibco), 1% GlutaMAX (Gibco) and 10 ng/mL NGF (MCE)), and cultured in a 37°C incubator for one week. The medium was half- replaced on the fourth day and the experiments were counted on the eighth day.
Refer to methods reported in literatures in the related art (Gerdts J, Sasaki Y, Vohra B, Marasa J, Milbrandt J. Image-based screening identifies novel roles for IkappaB kinase and glycogen synthase kinase 3 in axonal degeneration. J Biol Chem. 2011 Aug 12;286(32):28011-8) for the definition and measurement principle of the degeneration index of axon. In the present disclosure, the measurement method is detaild below.
0.1 µL of 10 mM compound to be tested was added to 100 µL of DRG medium to prepare a new medium containing 10 µM compound to be tested. The medium in the 96-well plate was removed and replaced with the new medium containing the compound to be tested. Explant pieces of dorsal ganglia were incubated with compounds in a 37°C incubator for 2 h of pre-protection. Following this 2-hour pretreatment, axons were transcted near the explants tissue piece using a glass microelectrode. At 0 h and 24 h post axonal transection, brightfield images of axons in the same region were captured using a microscope (Olympus) with 20× objective. Axonal integrity was assessed using an in-house developed script. The results were categorized based on the degree of protection into: (A) >50% and (B) 20-50%.

| SMILES | pIC50 (SARM1) | Degree of protection against axonal Wallerian Degeneration [1] |
| --- | --- | --- |
| O=C1C(Cc2ccc(F)c(F)c2)CCN1c1ccc(-c2ccncc2)cc1 (racemic) [Compound 30, 3-(3,4-difluorobenzyl)-1-(4-(pyridin-4-yl)phenyl)pyrrolidin-2-one] | > 6.00 | A ((A) >50%) |
| O=C1[C@H](Cc2ccc(F)c(F)c2)CCN1c1ccc(-c2ccncc2)cc1 (single isomer, unassigned) [Compound 81] | > 6.00 | A ((A) >50%) |
| O=C1[C@H](Cc2ccc(F)c(F)c2)CCN1c1ccc(-c2ccncc2)cc1 (single isomer, unassigned) [Compound 82] | > 6.00 | A ((A) >50%) |
| O=C1C(Cc2ccc(Cl)cc2)CCN1c1ccc(-c2ccncc2)cc1 (stereo not shown) [Compound 1, 3-(4-chlorobenzyl)-1-(4-(pyridin-4-yl)phenyl)pyrrolidin-2-one] | > 6.00 | A ((A) >50%) |
| O=C1C(Cc2ccc(Cl)cc2)CON1c1ccc(-c2ccncc2)cc1 (stereo not shown) [Compound 3, 4-(4-chlorobenzyl)-2-(4-(pyridin-4-yl)phenyl)isoxazolidin-3-one] | > 6.00 | B ((B) 20-50%) |
| O=C1C(Cc2ccc(Cl)cc2)CCN1c1ccc(-c2ccncc2)cn1 (stereo not shown) [Compound 6, 1-([3,4'-bipyridin]-6-yl)-3-(4-chlorobenzyl)pyrrolin-2-one] | 5.00 to 6.00 | A ((A) >50%) |
| O=C1C(Cc2ccc(Cl)cc2)CCN1c1ccc(-c2ccncc2)nc1 (stereo not shown) [Compound 7] | 5.00 to 6.00 | A ((A) >50%) |
| O=C1C(Cc2ccc(F)cc2)CCN1c1ccc(-c2ccncc2)cc1 (stereo not shown) [Compound 15, 3-(4-fluorobenzyl)-1-(4-(pyridin-4-yl)phenyl)pyrrolidin-2-one] | 5.00 to 6.00 | B ((B) 20-50%) |
| Cc1ccc(CC2CCN(c3ccc(-c4ccncc4)cc3)C2=O)cc1 (stereo not shown) [Compound 17, 3-(4-methylbenzyl)-1-(4-(pyridin-4-yl)phenyl)pyrrolidin-2-one] | 5.00 to 6.00 | A ((A) >50%) |
| O=C1C(Cc2ccc(Cl)cc2)CCN1c1cnc(-c2ccncc2)cn1 (stereo not shown) [Compound 20, 3-(4-chlorobenzyl)-1-(5-(pyridin-4-yl)pyrazin-2-yl)pyrrolidin-2-one] | > 6.00 | B ((B) 20-50%) |
| N#Cc1cc(-c2ccncc2)ccc1N1CCC(Cc2ccc(Cl)cc2)C1=O (stereo not shown) [Compound 21, 2-(3-(4-chlorobenzyl)-2-pyrrolidinone-1-yl)-5-(pyridin-4-yl)benzonitrile] | 4.52 to 5.00 | B ((B) 20-50%) |
| O=C1C(Cc2ccccc2)CCN1c1ccc(-c2ccncc2)cc1 (stereo not shown) [Compound 24, 3-benzyl-1-(4-(pyridin-4-yl)phenyl)pyrrolidin-2-one] | 5.00 to 6.00 | B ((B) 20-50%) |
| O=C1C(Cc2ccc(Cl)nc2)CCN1c1ccc(-c2ccncc2)cc1 (stereo not shown) [Compound 25, 3-((6-chloropyridin-3-yl)methyl)-1-(4-(pyridin-4-yl)phenyl)pyrrolidin-2-one] | 5.00 to 6.00 | A ((A) >50%) |
| O=C1C(Cc2ccc(Cl)s2)CCN1c1ccc(-c2ccncc2)cc1 (stereo not shown) [Compound 29, 3-((5-chlorothiophen-2-yl)methyl)-1-(4-(pyridin-4-yl)phenyl)pyrrolidin-2-one] | > 6.00 | A ((A) >50%) |
| O=C1C(Cc2cc(F)cc(F)c2)CCN1c1ccc(-c2ccncc2)cc1 (stereo not shown) [Compound 33, 3-(3,5-difluorobenzyl)-1-(4-(pyridin-4-yl)phenyl)pyrrolidin-2-one] | 5.00 to 6.00 | A ((A) >50%) |
| O=C1C(Cc2ccc(Cl)cc2)CCN1c1ccc(-c2ccncc2Cl)cc1 (stereo not shown) [Compound 34, 3-(4-chlorobenzyl)-1-(4-(3-chloropyridin-4-yl)phenyl)pyrrolidin-2-one] | > 6.00 | A ((A) >50%) |
| O=C1C(Cc2ccc(F)cc2F)CCN1c1ccc(-c2ccncc2)cc1 (stereo not shown) [Compound 41, 3-(2,4-difluorobenzyl)-1-(4-(pyridin-4-yl)phenyl)pyrrolidin-2-one] | 5.00 to 6.00 | B ((B) 20-50%) |
| O=C1C(Cc2ccc(Cl)cc2)CCCN1c1ccc(-c2ccncc2)nn1 (stereo not shown) [Compound 53, 3-(4-chlorobenzyl)-1-(6-(pyridin-4-yl)pyridazin-3-yl)piperidin-2-one] | > 6.00 | B ((B) 20-50%) |
| O=C1C(Cc2ccc(F)cc2)CCN1c1ccc(-c2ccncc2)nn1 (stereo not shown) [Compound 55, 3-(4-fluorobenzyl)-1-(6-(pyridin-4-yl)pyridazin-3-yl)pyrrolidin-2-one] | > 6.00 | B ((B) 20-50%) |
| S=C1C(Cc2ccc(Cl)cc2)CCN1c1ccc(-c2ccncc2)nn1 (stereo not shown) [Compound 58, 3-(4-chlorobenzyl)-1-(6-(pyridin-4-yl)pyridazin-3-yl)pyrrolidin-2-thione] | > 6.00 | B ((B) 20-50%) |
| C#Cc1ccc(CC2CCN(c3ccc(-c4ccncc4)cc3)C2=O)cc1 (stereo not shown) [Compound 89, 3-(4-ethynylbenzyl)-1-(4-(pyridin-4-yl)phenyl)pyrrolidin-2-one] | 4.52 to 5.00 |  |
| O=C1C(Cc2ccc(/C=C/Cl)cc2)CCN1c1ccc(-c2ccncc2)cc1 (stereo not shown) [Compound 90, (E)-3-(4-(2-chloroethenyl)benzyl)-1-(4-(pyridin-4-yl)phenyl)pyrrolidin-2-one] | 5.00 to 6.00 |  |
| CC(=O)c1ccc(CC2CCN(c3ccc(-c4ccncc4)cc3)C2=O)cc1 (stereo not shown) [Compound 91, 3-(4-acetylbenzyl)-1-(4-(pyridin-4-yl)phenyl)pyrrolidin-2-one] | 4.52 to 5.00 |  |
